What was measured:
[1] = Preclinical PK, oral and IV; type: in vivo, monkey
OCI-LY10 xenografts = assay: OCI-LY10 human ABC-DLBCL xenograft efficacy; type: in vivo, female NSG mice; details: Day 45
Source text: FIG. 20 depicts the effect of the compound of Formula (III) on growth of established OCI-LY10 human ABC-DLBCL xenografts in mice PEG400/PVP-VA64, Polyethylene glycol 400/N-vinylpyrrolidone and vinyl acetate 64; SEM, standard error of the mean. Group tumor volumes are graphed as the mean±SEM. Bar below x-axis indicates the treatment period. Groups are plotted while at least ⅔ of the animals remained on the study. Mice were implanted SC on the right flank on Day 0. Tumors were established 33 days post implantation, mice were randomized into experimental groups and dosed orally twice or once daily for 3 weeks (n=10/group).
To evaluate the duration of signaling shutdown and occupancy of BTK protein after compound administration, we determined the amount of free BTK protein in OCI-LY10 DLBCL tumor lysates harvested using an BTK occupancy assay. […] BTK protein occupancy levels remained high with 71%, 94% and 96%, respectively, at 12 hours and 70%, 91% and 85%, respectively after 24 hours. (FIG. 19). The antitumor efficacy of compound of Formula (III) was assessed in mice bearing established SC OCI-LY10 human CD79b mutant DLBCL xenografts in female NSG mice, dosed either once (QD) or twice (BID) a day. Analysis of tumor growth inhibition was performed 14 days into the 21-day treatment period (Day 45) as that was the last day when 2/3 of the vehicle controls remained on the study. Compound of Formula (III) induced tumor growth inhibition in the OCI-LY10 model at all dose levels. […] Taken together, the in vivo data support a first in-human trial of the compound of Formula (III) in combination with Venetoclax in patients with B cell lymphomas.

[2] = Protein binding in RPMI culture media containing 10% FBS; type: in vitro ADME; details: bovine, read-out: % free in RPMI culture media containing 10% FBS
AhR = assay: Puracyp DRE luciferase-reporter cell line (CYP1A2 induction); type: in vitro ADME
Description: To assess the potential of the compound of Formula (III) to be a time-dependent inhibitor of CYP3A, human liver microsomes were preincubated for 30 minutes at 37° C. with the compound of Formula (III) at concentrations up to 10 μM, and CYP3A activity was measured using testosterone as a probe substrate. […] The potential of the compound of Formula (III) to induce CYPs at the transcriptional level was assessed using Puracyp™ DPX2 (CYP3A4, PXR) and DRE (CYP1A2, AhR) luciferase-reporter cell lines; rifampicin and omeprazole were used as positive controls for CYP3A and CYP1A induction, respectively. The activation by the compound of Formula (III) was <20% of positive control values for PXR (6.6% and 14.1% at 1 and 10 μM change, respectively) or AhR (0.1% and 0.3% change, respectively). […] Potential involvement of various CYP isoforms in the metabolism of the compound of Formula (III) was investigated by measuring the parent compound remaining after 1-hour incubation with the compound of Formula (III) (1 μM) with recombinant CYPs (rCYPs) at 100 pmol P450/mL in the presence of 1 mM NADPH at 37° C. The only isozyme that produced notable the compound of Formula (III) turnover with <1% parent remaining after 1-hour incubation was CYP3A4 (FIG. 24). […]

[3] = Plasma protein binding, equilibrium dialysis; type: in vitro ADME, guinea pig
Description: Additional Data on Preclinical PK Profile—Protein binding of the compound of Formula (III) was studied using an equilibrium dialysis method in plasma from human, cynomolgus monkey, beagle dog, Sprague Dawley rat, CD-1 mouse, and guinea pig at 0.25, 2.5, and 25 μM. […] In human and monkey, the plasma protein binding was concentration dependent. […] Free fraction of the compound of Formula (III) in liver microsomes from various species ranged from 75.1% to 87.9% at 0.25 mg/mL and from 58.9% to 86.5% at 1.0 mg/mL (Table 17). […] In hepatocytes, the compound of Formula (III) turnover followed a similar trend, with T1/2 ranging from 75.3 minutes in monkey to 278.1 minutes in human.

C=CC(=O)N[C@H]1CCC[C@H]1NC(=O)c1sc2nccc3c2c1NC(=O)N3c1cnc(CC(C)C)cc1C (atropisomer, axis not shown) [compound of Formula (III), N-((1R,2S)-2-Acrylamidocyclopentyl)-5-(S)-(6-isobutyl-4-methylpyridin-3-yl)-4-oxo-4,5-dihydro-3H-1-thia-3,5,8-triazaacenaphthylene-2-carboxamide]
clearance ([1]; monkey, in vivo, iv): 3.1 ± 0.3 mL/min/kg
half-life ([1]; monkey, in vivo, iv, read-out: IV T1/2 (converted)): 240 min
Vd ([1]; monkey, in vivo, iv, read-out: Vss): 0.7 L/kg
Cmax ([1]; monkey, in vivo, oral): 1010 ± 94 ng/mL
Tmax ([1]; monkey, in vivo, oral): 1.7 ± 0.6 h
AUC(0-inf) ([1]; monkey, in vivo, oral, read-out: Oral AUCinf): 10000 ± 2270 ng·h/mL
F ([1]; oral, monkeys): 75 ± 17%
TGI (OCI-LY10 xenografts; 5 mg/kg BID): 26%
ΔTGI (OCI-LY10 xenografts; 5 mg/kg BID): 34%
TGI (OCI-LY10 xenografts; 10 mg/kg QD): 24%
ΔTGI (OCI-LY10 xenografts; 10 mg/kg QD): 30%
TGI (OCI-LY10 xenografts; 15 mg/kg BID): 51%
ΔTGI (OCI-LY10 xenografts; 15 mg/kg BID): 66%
TGI (OCI-LY10 xenografts; 30 mg/kg QD): 35%
ΔTGI (OCI-LY10 xenografts; 30 mg/kg QD): 45%
TGI (OCI-LY10 xenografts; 50 mg/kg BID): 78%
ΔTGI (OCI-LY10 xenografts; 50 mg/kg BID): 102%
TGI (OCI-LY10 xenografts; 100 mg/kg QD): 51%
ΔTGI (OCI-LY10 xenografts; 100 mg/kg QD): 65%
fraction unbound at 1 μM [2]: 0.317
AhR activation, % of positive control (omeprazole) (AhR; 1 μM): 0.1%
AhR activation, % of positive control (omeprazole) (AhR; 10 μM): 0.3%
% Free in plasma ([3]; 2.5 μM): 3.23%
% Free in plasma ([3]; 25 μM): 3.72%
fraction unbound at 0.25 μM ([3]; guinea pig, plasma, 0.25 μM, read-out: % Free in plasma): 0.0326

Reference: patent US12622910B2, “Inhibitors of Bruton's tyrosine kinase and methods of their use” (Janssen Pharmaceutica NV, priority 2021, dated 2026)
